Measured values from US10653672B2, “Myogenesis promotor, muscle atrophy inhibitor, medical composition and TAZ activator” (National University Corporation Tokyo Medical and Dental …, priority 2014, dated 2020).
Several values for one entry are separate records, joined by “and”; a condition that tells them apart may be missing. Identical values can stand only once.

Assays:
A431 cells [1] = experiment: Proliferation of A431 cells in 3D matrigel; format: cell-based; details: A431 cells in 2% BD Matrigel; 10 μM; 10 days; maximum diameter of 30 cell aggregates
Procedure: (2) Each well of a 96-well plate was pre-coated with 30 μL BD Matrigel (trade name, Becton, Dickinson and Company). A431 cells were suspended in the 2% BD Matrigel at a concentration of 2.1×10^6 cells/mL. This cell solution (140 μL) was added with 0.17 μL of 10 mM IBS008739 stock solution in DMSO or 0.17 μL of DMSO, and used to layer the pre-coated wells, and proliferation in the 3D matrigel was observed (see FIG. 12B). 300 of A431 cells were placed in each well of Ultra Low Attachment 96-well plate, and cultured in a serum-free DMEM-F-12 medium containing 10 ng/mL FGF, 5 μg/mL insulin and 0.1% (w/v) BSA. Formation of tumor spheres was observed under the condition with 10 mM IBS008739 stock solution dissolved in DMSO so that the final concentration was 10 μM, or the condition with DMSO of the same volume (see FIG. 12C). The maximum diameter of 30 cell aggregates of 150 μm or more observed in the 3D matrigel or sphere formation condition) are measured as the size of 3D colony or sphere. The results are shown in Table 10 and FIGS. 12B and 12C. The line in the figure is 200 μm. The line and the error bar indicate the average value and the standard error, and ns refers to not significant.
Observation of the spheres and the 3D matrigel cultivation were performed by the following processes. […]

A431 cells [2] = experiment: Immunoblotting of EMT markers in A431 cells; format: cell-based
Procedure: (1) A431 cells, (epidermoid carcinoma), A549 cells (adenocarcinomic human alveolar basal epithelial cell) and HCT116 cells (human colon cancer) were treated with IBS008738 or DMSO, respectively, and evaluated by immunoblotting.
HEK293, A431, A549, HCT116, MCF7 and SW480 cells were cultured in Dulbecco's Modified Eagle Medium (DMEM) containing 10% fetal bovine serum (FBS), 10 mM HEPES-NaOH at pH 7.4, 100 U/ml penicillin and 100 mg/I streptomycin under 5% CO2 at 37° C.

C2C12 cells = experiment: Anti-MHC immunostaining of differentiating C2C12 cells; format: cell-based, mouse
Procedure: (2) To a culture medium in which C2C12 cells were grown to confluence under growth condition, IBS008738 or DMSO was added. The C2C12 cells were fixed immediately after the addition of IBS008738 or DMSO, and at 24 hours, 48 hours or 72 hours after the addition of IBS008738 or DMSO under differentiation condition. The fixed C2C12 cells were immunostained with anti-MHC antibody. The cell nuclei were visualized with Hoechst 33342.
(3) C2C12 cells were grown under growth condition for 24 hours in a culture medium with IBS008738 or DMSO at a concentration of 10 μM, respectively, and switched to differentiation condition to continue the cultivation. The C2C12 cells were fixed immediately after the completion of cultivation under growth condition, and at 24 hours, 48 hours and 72 hours after the switching to differentiation condition, respectively.
C2C12 cells were passaged in a growth medium (DMEM containing 10% FBS) and differentiated in a differentiation medium (DMEM containing 2% horse serum (Invitrogen)).

caveolin 3 = experiment: Quantitative real-time PCR, caveolin 3; format: cell-based, mouse; details: C2C12 cells, 10 μM; for Normarized mRNA abundance, Caveolin3: listed as IBS008738
Procedure: (1) Quantitative real-time PCR was performed with C2C12 cells immediately before the induction of muscle formation (0 h), and after culturing under differentiation condition in a culture medium added with IBS008738 or DMSO at a concentration of 10 μM for 24 hours (24 h) and 72 hours (72 h), respectively. […] The line and error bar indicate the average value and the standard error, **p<0.05, and ns refers to not significant.
Evaluation was also performed under the same condition on M-cadherin, calpain 1 and caveolin 3, which are myofusion markers. As a result, there was no increase in the degree of gene transcription in the case with IBS008738.
The quantitative real-time PCR was performed with SYBER Green (Roche) and ABI7500 Realtime PCR system (Applied Biosystems).

[3] = test system: binding of MyoD to myogenin promoter; experiment: Chromatin immunoprecipitation, MyoD on myogenin promoter; format: cell-based, mouse; details: C2C12 cells; 10 μM; differentiation condition 24 hours; protein G sepharose without antibody; listed as IBS008738
Procedure: (1) Chromatin immunoprecipitation of MyoD, TEAD and Pax3 was performed on C2C12 cells that were cultured under differentiation condition for 24 hours in a culture medium added with IBS008738 or DMSO at a concentration of 10 μM. Myogenin, connective tissue growth factor (CTGF) and MyfS were detected by PCR, respectively. The immunoprecipitation with protein G sepharose was used as a control (Mock ChIP). […] The line and the error bar in the figure indicate the average value and the standard error, *p<0.05, ***p<0.001, ns refers to not significant.
The Chromatin immunoprecipitation was performed according to the following process. C2C12 cells were cultured to confluence, and then treated with IBS008738 or DMSO at a concentration of 10 μM in a differentiation medium for 24 hours. The cells were crosslinked in 1.42% (v/v) formaldehyde for 15 minutes, and the reaction was quenched by treating with 125 mM glycine for 5 minutes. […] Shearing was analyzed by agarose gel electrophoresis. […] The immunoprecipitated DNA fragments were isolated using Chelex-100 resin and diluted by 1:2.5 for quantitative PCR analysis. Input normalized relative abundance was determined.

With `Cc1ccc(-n2cnc(/N=C/N3CCOCC3)c2C(=O)c2ccccc2)cc1` [exemplary compound 1] the “3D colony size, average size (μm)” value (A431 cells [1]) was 272.30 μm, the “EMT markers (fibronectin, E-cadherin, N-cadherin and vimentin) compared with DMSO” value (A431 cells [2]) was “no significant difference” and the “cell differentiation compared with DMSO” value (C2C12 cells; 10 μM, 24 hours under growth condition, then differentiation condition up to 72 hours) was “more developed”. The “cell differentiation and MHC expression compared with DMSO” value (C2C12 cells; added at confluence, fixed at 0, 24, 48 or 72 hours under differentiation condition, anti-MHC antibody) was “more significant”, the “degree of gene transcription of caveolin 3” value (caveolin 3; 24 h and 72 h) was “no increase” and the “Normarized mRNA abundance, Caveolin3” value (caveolin 3; differentiation condition 24 h) was 0.14 and 0.13. The “Normarized mRNA abundance, Caveolin3” value (caveolin 3; differentiation condition 72 h) was 2.08 and 2.47 and 2.09 and the “Input %, myogenin-p, Mock ChIP” value [3] was 0.05% and 0.08%.
